Laboratory results: patent US20100173022A1, “COMPOSITION FOR THE TREATMENT OF DIABETES MELLITUS AND METABOLIC SYNDROME” (priority 2007, published 2010)

Tests used:
[1] = test system: experimental diabetic rats (Streptozotocin-Nicotinamide model); assay: 30-days study in Streptozotocin-Nicotinamide experimental diabetic rats; assay type: in vivo, rat; settings: after 10, 20 and 30 days of treatment vs base line (0 day); P<0.05
Procedure: In another study the effect of ADM01 on blood glucose levels in experimental diabetic rats, using the Streptozotocin-Nicotinamide model, was investigated. After confirming the stabilization of diabetes mellitus in the experimental animals a single dose study was carried out in which the effect of a single dose administration of different dosages of ADM01 on blood glucose levels was investigated against vehicle control.
After the single dose study, a 30-days study was carried out in which the effect of daily administration of ADM01 on blood glucose levels was investigated. The effect of doses of 200, 400 and 800 mg/kg body weight respectively were investigated.

[2] = test system: rat islets; assay: in vitro insulinotropic test using rat islets; assay type: cell-based; settings: dose 162(1 mM) micrograms; mean ± SEM
Source text: In an in vitro test using rat islets, the insulinotropic ability of ADM01 was investigated against standard (tolbutamide) and placebo control.

[3] = test system: streptozotocin induced type I diabetes rats; assay: Streptozotocin induced type I diabetes model; assay type: in vivo, rat; settings: insulin 2.5, single dose, at 2 hrs
Procedure: In another study streptozotocin was administered to the test animals, causing the destruction of the beta cells of pancreas. In rats a dose of STZ of 60 mg/kg ip causes stable hyperglycemia by day 7 post administration. Generally, this model mimics type I Diabetes Mellitus. Groups were treated for 15 days with ADM01, ADM01+insulin and insulin.
In the same study the effects of a single dose administration on fasting glucose levels was studied.

Compound	serum blood glucose levels [1]	serum insulin levels [1]	Amount of insulin during stimulated insulin release (glucose, 16 mM) [2]	Amount of insulin release at basal glucose levels (2 mM) [2]	fall of FPG-levels [3]
CCCCNC(=O)NS(=O)(=O)c1ccc(C)cc1 [Tolbutamide]	significantly decreased	significantly increased	239.48 ± 11.43 picomoles/L	107.08 ± 15.35 picomoles/L	–
insulin	–	–	–	–	23.3%
